In data set [1] the target is T1, hT1R2/hT1R3 sweet receptor (Homo sapiens, UniProt Q7RTX0+Q8TE23).
T1 construct: expressed in transfected cells; host or cells: HEK293 derivative stably expressing Gα15, clone S-9
T1 sequence (Q8TE23 20-839): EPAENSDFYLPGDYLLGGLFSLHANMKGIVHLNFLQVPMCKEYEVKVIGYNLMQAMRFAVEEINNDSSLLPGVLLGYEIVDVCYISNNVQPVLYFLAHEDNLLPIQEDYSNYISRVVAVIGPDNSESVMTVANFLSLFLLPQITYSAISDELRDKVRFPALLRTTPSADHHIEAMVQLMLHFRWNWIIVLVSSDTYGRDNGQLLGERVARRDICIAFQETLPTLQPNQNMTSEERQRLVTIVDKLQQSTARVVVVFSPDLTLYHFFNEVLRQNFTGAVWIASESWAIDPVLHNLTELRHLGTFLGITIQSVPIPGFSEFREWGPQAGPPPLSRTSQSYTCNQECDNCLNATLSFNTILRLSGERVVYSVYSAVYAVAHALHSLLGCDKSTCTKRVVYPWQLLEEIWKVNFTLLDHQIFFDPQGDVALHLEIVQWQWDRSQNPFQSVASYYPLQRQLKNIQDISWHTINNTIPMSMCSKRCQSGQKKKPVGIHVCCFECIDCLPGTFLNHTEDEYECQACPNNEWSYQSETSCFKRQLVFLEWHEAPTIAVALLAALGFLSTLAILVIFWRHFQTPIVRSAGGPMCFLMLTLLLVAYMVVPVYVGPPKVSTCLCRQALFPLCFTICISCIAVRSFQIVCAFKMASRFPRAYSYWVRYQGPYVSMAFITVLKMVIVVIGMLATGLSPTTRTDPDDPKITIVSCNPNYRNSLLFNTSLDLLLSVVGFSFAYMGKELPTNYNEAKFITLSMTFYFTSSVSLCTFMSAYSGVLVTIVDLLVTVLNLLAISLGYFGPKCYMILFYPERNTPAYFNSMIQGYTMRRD
T1 sequence (Q7RTX0 21-852): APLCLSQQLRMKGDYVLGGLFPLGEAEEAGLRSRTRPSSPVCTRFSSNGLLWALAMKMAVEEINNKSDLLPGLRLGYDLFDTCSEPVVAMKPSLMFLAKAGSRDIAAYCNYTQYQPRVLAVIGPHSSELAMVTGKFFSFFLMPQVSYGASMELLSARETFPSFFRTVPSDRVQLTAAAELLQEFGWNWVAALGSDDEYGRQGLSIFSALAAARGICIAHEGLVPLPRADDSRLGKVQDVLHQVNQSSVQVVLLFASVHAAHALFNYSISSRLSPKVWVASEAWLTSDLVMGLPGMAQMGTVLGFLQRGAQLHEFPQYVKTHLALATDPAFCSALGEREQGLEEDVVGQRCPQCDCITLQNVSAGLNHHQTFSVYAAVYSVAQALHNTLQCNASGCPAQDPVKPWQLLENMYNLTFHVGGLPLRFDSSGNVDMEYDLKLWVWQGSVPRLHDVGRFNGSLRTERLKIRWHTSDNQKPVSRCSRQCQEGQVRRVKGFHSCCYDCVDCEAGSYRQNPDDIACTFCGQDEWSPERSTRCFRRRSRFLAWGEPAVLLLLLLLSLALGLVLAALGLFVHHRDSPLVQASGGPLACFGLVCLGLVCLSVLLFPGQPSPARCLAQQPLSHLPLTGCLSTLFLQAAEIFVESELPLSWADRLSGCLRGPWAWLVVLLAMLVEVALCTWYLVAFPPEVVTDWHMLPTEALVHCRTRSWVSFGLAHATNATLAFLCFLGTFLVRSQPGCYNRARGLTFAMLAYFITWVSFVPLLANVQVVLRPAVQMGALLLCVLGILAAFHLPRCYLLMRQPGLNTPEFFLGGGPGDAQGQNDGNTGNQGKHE
The data set can be described thus: In vitro hT1R2/hT1R3 sweet taste receptor activation assay (FLIPR, dose response). It counts as cell-based. To be noted: read-out: EC50 for activation of a hT1R2/hT1R3 sweet receptor expressed in an HEK293 cell line. The essentials:
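Dose-response at 10 concentrations (60 nM–30 µM, duplicates) measured as Fluo-3AM calcium fluorescence on FLIPR in hT1R2/hT1R3 S-9 cells, in D-PBS at room temperature. Responses scaled to 400 mM D-fructose. EC50s from regression with all curve parameters floating.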

Data set [2] concerns the target T2, hT1R1/hT1R3 umami receptor (Homo sapiens, UniProt Q7RTX0+Q7RTX1).
T2 construct: expressed in transfected cells; host or cells: HEK293 derivative stably expressing Gα15, clone I-17, expression induced with mifepristone
T2 sequence (Q7RTX1 21-841): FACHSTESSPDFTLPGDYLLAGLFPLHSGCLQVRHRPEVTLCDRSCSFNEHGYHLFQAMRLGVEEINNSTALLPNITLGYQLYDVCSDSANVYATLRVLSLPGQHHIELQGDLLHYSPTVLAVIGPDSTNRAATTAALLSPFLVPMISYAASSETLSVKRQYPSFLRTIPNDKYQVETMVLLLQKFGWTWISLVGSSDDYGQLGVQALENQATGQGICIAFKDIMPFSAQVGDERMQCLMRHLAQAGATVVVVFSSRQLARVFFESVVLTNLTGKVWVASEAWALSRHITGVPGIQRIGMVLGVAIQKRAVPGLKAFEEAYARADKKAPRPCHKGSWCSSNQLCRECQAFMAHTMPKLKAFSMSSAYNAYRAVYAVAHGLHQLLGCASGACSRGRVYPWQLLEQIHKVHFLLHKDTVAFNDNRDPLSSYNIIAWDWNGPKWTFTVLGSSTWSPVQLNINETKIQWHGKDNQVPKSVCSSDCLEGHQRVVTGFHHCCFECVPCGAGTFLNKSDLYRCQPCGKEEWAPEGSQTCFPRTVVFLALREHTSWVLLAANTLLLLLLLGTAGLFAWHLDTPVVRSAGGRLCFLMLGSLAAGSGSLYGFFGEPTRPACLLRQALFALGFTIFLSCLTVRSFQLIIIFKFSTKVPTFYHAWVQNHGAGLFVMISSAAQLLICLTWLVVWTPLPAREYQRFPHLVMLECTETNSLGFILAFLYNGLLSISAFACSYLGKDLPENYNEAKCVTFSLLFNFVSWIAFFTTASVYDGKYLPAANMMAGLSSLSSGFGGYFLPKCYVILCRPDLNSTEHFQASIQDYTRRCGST
T2 sequence (Q7RTX0 21-852): T1 sequence (Q7RTX0 21-852)
The data set can be described thus: In vitro hT1R1/hT1R3 umami taste receptor activation assay (FLIPR, dose response). It counts as cell-based. To be noted: read-out: EC50 for activation of a hT1R1/hT1R3 umami receptor expressed in an HEK293 cell line.

pEC50: −log10 of the molar value.

Take `Cc1c(F)c(F)c(C(=O)NC2CCCCC2C)c(F)c1F` (stereo not shown) [Example 162, 2,3,5,6-tetrafluoro-4-methyl-N-(2-methylcyclohexyl)benzamide]: the melting point (in general, the temperature, or range, at which the solid turns liquid) fell in the range of 202 to 204 °C. Besides, the pEC50 in data set [1] was 6.41.

Compound `Cc1cc(C)c2c(c1)C(NC(=O)c1conc1C)CCC2` (stereo not shown) [Example 166, N-(5,7-dimethyl-1,2,3,4-tetrahydronaphthalen-1-yl)-3-methylisoxazole-4-carboxamide] gave a melting point of 57 to 58 °C. Also, the pEC50 in data set [1] is 6.12.

Compound `COc1cccc2c1CCCC2NC(=O)c1cccc(Cl)c1O` (stereo not shown) [Example 167, 3-chloro-2-hydroxy-N-(5-methoxy-1,2,3,4-tetrahydronaphthalen-1-yl) benzamide] showed a melting point of 175 to 176 °C. The pEC50 in data set [1] is 6.68.

`CCCC(CCC)NC(=O)c1ccc2oc(OCC)nc2c1` [Example 43, 2-Ethoxy-benzooxazole-5-carboxylic acid (1-propyl-butyl)-amide] registered a melting point of 128 to 129 °C. Further, the pEC50 in data set [2] was 5.30.

On to `Cc1ccc(CNC(=O)C(=O)NCCc2ccccn2)cc1` [Example 125, N-(4-methyl-benzyl)-N′-(2-pyridin-2-yl-ethyl)-oxalamide], for which the melting point is 152 to 154 °C. Further, the pEC50 in data set [2] is 6.39.

`CCOc1ccc(NC(=O)NCCc2ccccn2)cc1` [Example 160, 1-(4-ethoxyphenyl)-3-(2-(pyridine-2-yl)ethyl)urea] yielded a melting point of 163 to 164 °C. In addition, the pEC50 in data set [2] is 5.39.

Compound `Cc1ccc(CNC(=O)C(=O)NCCc2ccccn2)c(C)c1` [Example 133, N-(2,4-dimethylbenzyl)-N′-(2-(pyridin-2-yl)ethyl)oxalamide] returned a melting point of 148 to 149 °C. Moreover, the pEC50 in data set [2] was 7.15.

Take `CCCC(CCC)NC(=O)c1ccc2oc(CCl)nc2c1` [Example 45, Chloromethyl benzooxazol-5-carboxylic acid (1-propyl-butyl)amide]: the melting point lay in the range of 108.5 to 109 °C. Also, in data set [2], the pEC50 was 6.64.

`COc1ccc(CNC(=O)C(=O)NCCc2cccs2)c(OC)c1` [Example 156, N-(2,4-Dimethoxybenzyl)-N′-(2-(thiophen-2-yl)ethyl)oxalamide] showed a melting point of 146 to 147 °C. For the same compound, the pEC50 in data set [2] is 5.31.

`COc1ccccc1CNC(=O)C(=O)NCCc1ccccn1` [Example 122, N-(2-Methoxy-benzyl)-N′-(2-pyridin-2-yl-ethyl)-oxalamide] returned a melting point of 118 to 119 °C. The pEC50 in data set [2] is 6.47.

As for `CCCC(CCC)NC(=O)c1ccc2nc(CCl)oc2c1` [Example 47, 2-Chloromethyl-benzooxazole-6-carboxylic acid (1-propyl-butyl)-amide], the melting point is 137 to 137.5 °C. Further, in data set [2], the pEC50 was 6.35.

For `COc1ccc(CNC(=O)C(=O)NCCc2ccccn2)cc1C` [Example 135], the melting point lay in the range of 145 to 147 °C. The pEC50 in data set [2] was 5.98.

In turn, `Cc1cc(CNC(=O)C(=O)NCCc2ccccn2)c(C)o1` [Example 130, N-(2,5-Dimethyl-furan-3-ylmethyl)-N′-(2-pyridin-2-yl-ethyl)-oxalamide] had a melting point of 112 to 115 °C. Further, the pEC50 in data set [2] is 6.00.

`Cc1c(F)c(F)c(C(=O)NC2CCCCCC2)c(F)c1F` [Example 164, N-cycloheptyl-2,3,5,6-tetrafluoro-4-methylbenzamide] displayed a melting point of 164 to 165 °C. In data set [1], the pEC50 is 5.73.

`CCCC(CCC)NC(=O)c1ccc2oc(OC)nc2c1` [Example 42, 2-Methoxy-benzooxazole-5-carboxylic acid (1-propyl-butyl)-amide] had a melting point of 137 to 138 °C. Also, in data set [2], the pEC50 was 6.16.

As to `O=C(N[C@@H]1CCCc2c(O)cccc21)c1cccc(Cl)c1O` (stereo in doubt) [Example 180, 3-Chloro-2-hydroxy-N-(5-hydroxy-1,2,3,4-tetrahydronaphthalen-1-yl)benzamide], the melting point lay within 148 to 151 °C. Moreover, in data set [1], the pEC50 is 5.93.

With `CCCC(CCC)NC(=O)Nc1ccccc1Cl` [Example 158], the melting point was 135 to 136 °C. Further, the pEC50 in data set [2] is 6.43.

On to `O=C(Nc1ccc2c(c1)OCO2)N1Cc2ccccc2C1` [Example 174, N-(3,4-methylenedioxyphenyl)isoindoline-2-carboxamide], for which the melting point lay within 165 to 166 °C. Further, the pEC50 in data set [1] was 5.98.

Consider `COc1ccc(CNC(=O)C(=O)NCCc2cc(C)ccn2)c(OC)c1` [Example 154, N-(2,4-Dimethoxybenzyl)-N′-(2-(4-methylpyridin-2-yl)ethyl)oxalamide], for which the melting point is 144 to 145 °C. For the same compound, in data set [2], the pEC50 was 5.79.

As for `Cc1ccsc1CNC(=O)C(=O)NCCc1ccccn1` [Example 124, N-(3-Methyl-thiophen-2-ylmethyl)-N′-(2-pyridin-2-yl-ethyl)-oxalamide], the melting point is 122 to 124 °C. Further, the pEC50 in data set [2] was 6.43.

The compound `CCCC(CCC)NC(=O)c1ccc2oc(SC)nc2c1` [Example 44, N-(heptan-4-yl)-2-(methylthio)benzo[d]oxazole-5-carboxamide] yielded a melting point of 113 to 114 °C. Besides, the pEC50 in data set [2] is 5.51.

The compound `CCCC(CCC)NC(=O)Nc1ccc(OC)cc1OC` [Example 159, 1-(2,4-dimethoxyphenyl)-3-(heptan-4-yl)urea] gave a melting point of 172 to 173 °C. Besides, the pEC50 in data set [2] was 6.01.

Take `CCCC(CCC)NC(=O)c1ccc2oc(CC)nc2c1` [Example 41, 2-Ethyl-benzooxazole-5-carboxylic acid (1-propyl-butyl)-amide]: the melting point was 107 to 108 °C. In addition, the pEC50 in data set [2] is 6.17.

Values taken from patent US20060045953A1 (priority 2004, published 2006).
